By Ki is commonly meant a measure of affinity in units of concentration, obtained from inhibition or displacement.

Test [1] concerns OSM-stimulated IL-6 secretion from U343 cells. The test can be described thus: OSM-induced IL-6 release from U343 glioma cells (IL-6 ELISA of conditioned medium). It counts as cell-based, human. The conditions noted are these: for Remaining IL-6 expression [% of control]: 100 ng/ml OSM, 24 h, IL-6 release of vehicle-treated cells set to 100% (n = 2), mean ± SD; for Effect on OSM-induced IL-6 secretion (in words): OSM-stimulated. How it is done: The human glioma cell line U343 [34] was maintained in DMEM containing 10% fetal bovine serum and 60 μg/ml gentamycin (Invitrogen, Darmstadt, Germany) at 37°C in a 10% CO2 atmosphere.
(§1) Measurements of IL-6 in conditioned medium and murine plasma samples were done by means of human- or murine-specific IL-6 Cytoset kits (Invitrogen, Darmstadt, Germany) according to manufacturer's protocols.
Using the characterized cell culture model of OSM-induced IL-6 expression, our in-house compound libraries were screened for potent IL-6 expression inhibitors. Human U343 glioma cells were treated with 100 ng/ml OSM for 24 h. The analysis by IL-6 ELISA identified a set of structurally related compounds as potent inhibitors of IL-6 secretion (Table 1). […] HAKs with proline in position P1 are known from the literature as inhibitors of prolyl endopeptidase (PREP), a proline-specific serine protease.

The target in test [2] is T1, human recombinant prolyl endopeptidase (PREP) (Homo sapiens, UniProt P48147).
T1 construct: made in house
T1 sequence (P48147 1-710): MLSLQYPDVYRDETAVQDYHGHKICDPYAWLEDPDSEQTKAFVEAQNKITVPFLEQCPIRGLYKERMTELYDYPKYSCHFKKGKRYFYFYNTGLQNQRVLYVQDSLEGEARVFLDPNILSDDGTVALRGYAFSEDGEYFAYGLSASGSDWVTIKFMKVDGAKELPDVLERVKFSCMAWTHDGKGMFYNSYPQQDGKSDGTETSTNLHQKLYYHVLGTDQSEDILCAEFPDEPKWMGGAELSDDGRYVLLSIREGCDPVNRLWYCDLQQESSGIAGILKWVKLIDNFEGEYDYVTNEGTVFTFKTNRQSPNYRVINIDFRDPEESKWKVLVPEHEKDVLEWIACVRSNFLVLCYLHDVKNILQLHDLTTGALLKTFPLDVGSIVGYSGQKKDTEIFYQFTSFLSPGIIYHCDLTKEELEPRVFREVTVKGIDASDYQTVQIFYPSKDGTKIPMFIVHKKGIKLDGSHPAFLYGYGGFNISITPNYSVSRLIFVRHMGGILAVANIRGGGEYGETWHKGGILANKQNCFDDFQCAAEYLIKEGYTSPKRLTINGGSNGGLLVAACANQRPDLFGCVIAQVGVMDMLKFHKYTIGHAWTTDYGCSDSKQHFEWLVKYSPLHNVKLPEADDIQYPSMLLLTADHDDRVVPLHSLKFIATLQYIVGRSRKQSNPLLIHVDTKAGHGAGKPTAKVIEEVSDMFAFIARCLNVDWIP
Put plainly: PREP enzymatic activity assay (Z-Gly-Pro-pNA, photometric). It counts as biochemical. The conditions noted are these: for Ki: recombinant PREP, Z-Gly-Pro-pNA 62.5/125/250 μM, pH 7.6, 30°C, competitive fit. How it is done: The activity of human recombinant prolyl endopeptidase (PREP) was determined photometrically using the substrate Z-Gly-Pro-pNA (Bachem, Weil am Rhein, Germany) usually at a concentration of 150 μM. As assay buffer 50 mM HEPES buffer pH 7.6, containing 200 mM NaCl, 1 mM EDTA, and 1 mM dithiothreitol was used. Release of pNA was monitored continuously at 405 nm for 15 min at 30°C in a 96-well plate reader (Spectrafluor, Tecan, Crailsheim, Germany). PREP activity was calculated from the slope of the time product curve with the help of a pNA standard. For determination of Ki values three different substrate concentrations (62.5 μM; 125 μM and 250 μM) and seven different inhibitor concentrations were analyzed. Substrate concentrations were selected to be at the Km value of Z-Gly-Pro-pNA (125 μM) as well as half and twice the Km. Data were fitted by non-linear regression to the competitive inhibitor equation (Graphit 5.0, Erithacus software).

For test [3], the system named is STAT3 phosphorylation at serine 727 (pSTAT3^S727) in U343 cells. Put plainly: OSM-induced STAT3 / Erk1 phosphorylation in U343 cells (western blot, immunocytochemistry). It counts as cell-based, human. The conditions noted are these: OSM 100 ng/ml, 20 μM compound, 6 h. The procedure: Human U343 cells were lysed with cell lysis buffer (Invitrogen, Darmstadt, Germany) supplemented with 0.2 mg/ml sodium orthovanadate (Sigma, Taufkirchen, Germany), protease inhibitor mix complete mini (Roche, Mannheim, Germany) and 1 mM AEBSF (Sigma, Taufkirchen, Germany) for 30 min on ice. Lysates were centrifuged for 15 min at 15,000 × g and 4°C. Protein content in supernatants was quantified by Bradford assay (Sigma, Taufkirchen, Germany) according to the manufacturer's protocol and stored at -20°C.
Western blotting was performed with 30 μg protein of whole-cell extracts, mixed with 4 x SDS sample loading buffer (Invitrogen, Darmstadt, Germany) and denatured for 10 min at 85°C. […]
Human U343 cells (1 × 10^5 cells/well) were grown on cover slips in 24-well plates (Greiner, Frickenhausen, Germany) for 24 h. […] Finally, cover slips were mounted on microscope slides and approximately 250 cells/sample were evaluated densitometrically by fluorescence microscopy (Zeiss, Jena, Germany) and MetaMorph Image Analysis Software (Universal Imaging Corporation, USA). […]
Figure 7 Effect of selected HAK compounds on OSM-induced STAT3 phosphorylation at serine 727 in U343 cells. […] For western blot analysis (A) 0.25 × 10^6 cells co-treated for 6 h with OSM (100 ng/ml) and selected HAK compounds (20 μM) were extracted and analyzed as described in experimental procedures. […]
On the technique in general: In western blotting, separated proteins are transferred to a membrane and probed.

The subject of test [4] is LPS-induced IL-6 release in primary mouse astrocytes. The test can be described thus: LPS-induced IL-6 release in primary mouse astrocytes (ELISA). It counts as cell-based. The conditions noted are these: 1 μg/ml LPS, 20 μM compound, 24 h. The procedure: (§2) According to Löffler, astrocyte-rich primary cell cultures were started with brains of newborn mice and rats and were maintained in Dulbecco's modified Eagle's medium (DMEM) for 33 days at 37°C in a humified atmosphere with 95% air/5% CO2.
as §1
(§3) Figure 5 Suppression of LPS-induced IL-6 release in primary murine astrocytes by selected HAK compounds. […] Astrocytes derived from newborn mice and rats were cultivated for 33 days followed by stimulation with 1 μg/ml LPS and treatment with compounds HAK-2 and HAK-5 (20 μM). After 24 hours conditioned media were analyzed with IL-6 specific ELISA. Data (mean ± SD) were obtained from experiments carried out in quadruplicate and statistical analysis was performed using the paired t test. Amount of IL-6 in LPS-treated control sample was set to 100%. ns, not significant; **p < 0.01; ***p < 0.001.
(§4) Primary murine astrocytes stimulated with 1 μg/ml LPS were co-treated with compounds HAK-2 and HAK-5 at a concentration of 20 μM each for 24 h. The observed effect of compounds HAK-2 and HAK-5 on LPS stimulation was similar to that of OSM-induced IL-6 expression in human U343 glioma cells (Figures 5A and 5B). […]

Test [5] concerns LPS-induced IL-6 release in primary rat astrocytes. The test can be described thus: LPS-induced IL-6 release in primary rat astrocytes (ELISA). It counts as cell-based. The conditions noted are these: 1 μg/ml LPS, 20 μM compound, 24 h. How it is done: as §2, §1, §3, §4
Test [6] has as its system OSM-induced IL-6 mRNA expression. On the set-up: method as in PMID 10899931. The conditions noted are these: cited from earlier work.

Regarding `O=C(NC(Cc1ccccc1)C(=O)NC(Cc1ccccc1)C(=O)c1nc2ccccc2s1)OCc1ccccc1` (stereo not drawn) [HAK-9, Z-Phe-Phe-BTh], the “Remaining IL-6 expression [% of control]” value in test [1] is on record as 182.8 ± 25.41 % of control. Moreover, the Ki in test [2] was > 10000 nM.
`O=C(O)C[C@H](NC(=O)OCc1ccccc1)C(=O)N1CCC[C@H]1C(=O)c1nc2ccccc2s1` [HAK-7, Z-Asp-Pro-BTh]: in test [1], the “Remaining IL-6 expression [% of control]” value is listed as 52.8 ± 3.91 % of control and the “Effect on OSM-induced IL-6 secretion (in words)” value (“Effect … (in words)” below) was “significantly reduced”. Besides, in test [2], the Ki stood at 12 nM.
As to `N=C(N)NCCC[C@H](NC(=O)OCc1ccccc1)C(=O)N1CCC[C@H]1C(=O)c1nc2ccccc2s1` [HAK-8, Z-Arg-Pro-BTh], in test [3], the “Effect on pSTAT3^S727 phosphorylation (western blot)” value is “significantly lower effect” and the “Suppression of OSM-mediated phosphorylation of pSTAT3^S727 (immunocytochemistry, densitometry)” value is on record as “did not”. In addition, in test [1], the “Remaining IL-6 expression [% of control]” value was 96.8 ± 10.69 % of control and the “Effect … (in words)” value is “does not reduce”. Moreover, in test [2], the “PREP inhibition (in words)” value is recorded as “potent PREP inhibitor” and the Ki is 3.2 nM.
Regarding `C[C@H](NC(=O)[C@H](Cc1ccccc1)NC(=O)OCc1ccccc1)C(=O)c1nc2ccccc2s1` [HAK-4, Z-Phe-Ala-BTh], in test [1], the “Remaining IL-6 expression [% of control]” value is 35.1 ± 6.75 % of control and the “Effect … (in words)” value was “significantly reduced”. In addition, in test [2], the “PREP inhibition (in words)” value is recorded as “poor PREP inhibitors” and the Ki was > 10000 nM.
Turning to `O=C(N[C@@H](Cc1ccccc1)C(=O)N1CCC[C@H]1C(=O)c1nc2ccccc2s1)OCc1ccccc1` [HAK-1, Z-Phe-Pro-BTh], in test [1], the “Remaining IL-6 expression [% of control]” value was 15.9 ± 1.87 % of control and the “Effect … (in words)” value is given as “significantly reduced”. In addition, the inhibitory constant (Ki) in test [2] was found to be 4.6 nM.
`O=C(N[C@@H](Cc1ccccc1)C(=O)N1CCC[C@H]1C(=O)c1nccs1)OCc1ccccc1` [HAK-5, Z-Phe-Pro-Th]: the “Reduction of LPS-induced IL-6 expression” value in test [4] came to 60%. Also, in test [1], the “Remaining IL-6 expression [% of control]” value was 35.2 ± 12.92 % of control and the “Effect … (in words)” value is given as “significantly reduced”. Also, the Ki in test [2] was determined as 0.11 nM. The “Reduction of LPS-induced IL-6 expression” value in test [5] is on record as 50%.
`NCCCC[C@H](NC(=O)OCc1ccccc1)C(=O)N1CCC[C@H]1C(=O)c1nc2ccccc2s1` [HAK-6, Z-Lys-Pro-BTh]: in test [1], the “Remaining IL-6 expression [% of control]” value is 38.8 ± 5.26 % of control and the “Effect … (in words)” value is reported as “significantly reduced”. Moreover, the Ki in test [2] worked out at 4.1 nM.
With `COc1ccc(C[C@H](N)C(=O)N[C@H]2[C@@H](O)[C@H](n3cnc4c(N(C)C)ncnc43)O[C@@H]2CO)cc1` [puromycin], in test [6], the “Effect on first OSM-induced IL-6 mRNA peak” value was “no effect” and the “Effect on second OSM-induced IL-6 expression peak” value is reported as “completely abrogated”.
Regarding `CC(C)C[C@H](NC(=O)[C@H](Cc1ccccc1)NC(=O)OCc1ccccc1)C(=O)c1nc2ccccc2s1` [HAK-3, Z-Phe-Leu-BTh], in test [1], the “Remaining IL-6 expression [% of control]” value is given as 22.1 ±5.91 % of control and the “Effect … (in words)” value is “significantly reduced”. Moreover, in test [2], the “PREP inhibition (in words)” value was “poor PREP inhibitors” and the Ki is > 1000 nM.
